Experiment [1] relates to r(UGGAA)9 (RNA, repeat) UGGAAUGGAAUGGAAUGGAAUGGAAUGGAAUGGAAUGGAAUGGAA
As to the kind of experiment: EMSA. The note with it: 100 mM NaCl; 10 mM sodium cacodylate pH 7.0, room temperature; 2 µM compound.

The test system of experiment [2] is SCA31 hpRNA (RNA, hairpin) GUACUGGAACAUGUUUCAUGUGGAAGUAC
As to the kind of experiment: NMR solution structure. The note with it: 100 mM NaCl; 20 mM sodium phosphate pH 6.9, 288 K.

Experiment [3] relates to GGA/AGA internal loop RNA duplex (RNA, mismatch bulge abasic) GUACUGGAACAUG/CAUGUAGAAGUAC
Briefly: UV melting. Particulars: 100 mM NaCl; 10 mM sodium cacodylate pH 7.0; 20 µM compound, 4 µM RNA.

Experiment [4] concerns 5'-biotin-TEG r(UGGAA)9 (RNA, repeat) UGGAAUGGAAUGGAAUGGAAUGGAAUGGAAUGGAAUGGAAUGGAA
Briefly: SPR. Particulars: 150 mM NaCl; 10 mM HEPES pH 7.4, 3 mM EDTA, 0.05% P20; 500 nM compound.

The subject of experiment [5] is r(UAAAA)9 (RNA, repeat) UAAAAUAAAAUAAAAUAAAAUAAAAUAAAAUAAAAUAAAAUAAAA
As to the kind of experiment: UV melting. Particulars: 100 mM NaCl; 10 mM sodium cacodylate pH 7.0; 20 µM compound, 2 µM RNA.

Experiment [6] deals with r(UGGAA)9 (RNA, repeat) UGGAAUGGAAUGGAAUGGAAUGGAAUGGAAUGGAAUGGAAUGGAA
As to the kind of experiment: UV melting. Particulars: 100 mM NaCl; 10 mM sodium cacodylate pH 7.0; 20 µM compound, 2 µM RNA; Tm 73.7 °C with NCD, none without.

Experiment [7] relates to SCA31 hpRNA (RNA, hairpin) GUACUGGAACAUGUUUCAUGUGGAAGUAC
As to the kind of experiment: ITC. Particulars: 100 mM NaCl; 10 mM sodium cacodylate pH 7.0, 25 °C; apparent; single set of identical sites.

Experiment [8] shares this test system. As to the kind of experiment: ESI-TOF MS. Particulars: 100 mM ammonium acetate; 50% methanol; 10 µM RNA, 40 µM compound.
Experiment [9] relates to GGA/GGA internal loop RNA duplex (UGGAA/UGGAA pentad) (RNA, mismatch bulge abasic) GUACUGGAACAUG/CAUGUGGAAGUAC
Briefly: UV melting. Particulars: 100 mM NaCl; 10 mM sodium cacodylate pH 7.0; 20 µM compound, 4 µM RNA.

`Cc1ccc2ccc(NC(=O)OCCCNCCCOC(=O)Nc3ccc4ccc(C)nc4n3)nc2n1`: the binding result in experiment [1] is “yes”; in experiment [2], “yes”; in [4], “yes”; in experiment [5] it was “no”; in experiment [6] it was “yes”; in [8], “yes”. For the same compound, the ΔTm in experiment [3] is 5.2 °C. Besides, the “Kd(app)” value in experiment [7] came out at 32 nM. In experiment [9], the midpoint of thermal melting (Tm) amounted to 21.5 °C.

Source of the values: PMC7801683 (2021).
